Where a name gives a salt, the structure may show the parent alone. Bounds are passed on as bounds.

The target in the test is T1, human C1s protein (Homo sapiens, UniProt P09871).
T1 construct: A104
T1 sequence (P09871 16-688): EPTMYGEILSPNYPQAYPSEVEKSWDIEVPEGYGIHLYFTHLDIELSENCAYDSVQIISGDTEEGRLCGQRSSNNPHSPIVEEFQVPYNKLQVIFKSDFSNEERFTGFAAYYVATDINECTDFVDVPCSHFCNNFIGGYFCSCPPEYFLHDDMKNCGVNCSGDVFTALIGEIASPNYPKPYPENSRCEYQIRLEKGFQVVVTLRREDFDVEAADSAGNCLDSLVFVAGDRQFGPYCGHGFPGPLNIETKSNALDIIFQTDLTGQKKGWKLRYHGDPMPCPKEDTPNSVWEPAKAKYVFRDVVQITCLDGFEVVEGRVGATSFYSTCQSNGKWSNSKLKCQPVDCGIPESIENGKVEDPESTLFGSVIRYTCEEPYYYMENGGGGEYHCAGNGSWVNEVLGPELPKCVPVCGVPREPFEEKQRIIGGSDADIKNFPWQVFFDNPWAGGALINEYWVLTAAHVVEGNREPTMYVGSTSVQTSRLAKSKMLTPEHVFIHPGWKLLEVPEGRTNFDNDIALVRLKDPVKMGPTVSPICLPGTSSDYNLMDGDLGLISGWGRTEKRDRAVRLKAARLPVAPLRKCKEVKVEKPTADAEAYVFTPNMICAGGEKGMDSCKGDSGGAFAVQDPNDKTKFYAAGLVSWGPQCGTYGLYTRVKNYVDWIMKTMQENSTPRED
The test can be described thus: C1s enzymatic assay (hydrolysis of YLGR-Rh110-dPro). The conditions noted are these: substrate YLGR-Rh110-dPro 20 μM, 15 min pre-incubation, 60 min RT, fluorescence, read-out: hC1s pIC50 (converted). It is filed as biochemical. The procedure, abridged: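 Fluorogenic assay in which C1s cleaves YLGR-Rh110-dPro (20 μM final) to release fluorescent Rh110, in buffer with 0.1 mg/mL BSA. Enzyme was preincubated 15 min with compound before substrate was added. Compounds were run as 11-point curves, with DMSO as high control and Nafamostat as low control.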
For the compound `C[C@@H]1C[C@H](Oc2ccc(B(O)O)cc2-c2ccc3c(N)cnnc3c2)C[C@H](C)O1` [Example 123, [3-(4-aminocinnolin-7-yl)-4-{[(2R,4R,6S)-2,6-dimethyloxan-4-yl]oxy}phenyl]boronic Acid Formic Acid Salt], the IC50 was 0.851 nM.
As for `Nc1cnnc2cc(-c3cc(B(O)O)ccc3C(=O)N3CCCC3)ccc12` [Example 124, [3-(4-aminocinnolin-7-yl)-4-(pyrrolidine-1-carbonyl)phenyl]boronic Acid], the IC50 was 7.59 nM.
Next, `Cc1nc2c(-c3ccc4c(N)nnc(C)c4c3)cc(B(O)O)cc2o1` [Example 125, [4-(1-amino-4-methylphthalazin-6-yl)-2-methyl-1,3-benzoxazol-6-yl]boronic Acid Formic Acid Salt]: 3.24 nM; `Nc1cnnc2cc(-c3cc(B(O)O)ccc3OC3CCC(=O)NC3)ccc12` (stereo not shown) [Example 126, [3-(4-aminocinnolin-7-yl)-4-[(6-oxopiperidin-3-yl)oxy]phenyl]boronic Acid]: 6.03 nM; `Nc1cnnc2cc(-c3ccc(CC(=O)O)c(B(O)O)c3)ccc12` [Example 127, 2-[4-(4-aminocinnolin-7-yl)-2-(dihydroxyboranyl)phenyl]acetic Acid]: 13.2 nM.
With `Nc1cnnc2cc(-c3cc(B(O)O)cc4c3OC(F)(F)O4)ccc12` [Example 128, [7-(4-aminocinnolin-7-yl)-2,2-difluoro-2H-1,3-benzodioxol-5-yl]boronic Acid], the IC50 was 0.55 nM.
Take `COc1ccc(B(O)O)cc1-c1ccc2nccc(N)c2c1` [Example 129, [3-(4-aminoquinolin-6-yl)-4-methoxyphenyl]boronic Acid Formic Acid Salt]: the IC50 was 6920 nM.
For `COc1ccc(B(O)O)cc1-c1cnc2c(N)nccc2c1` [Example 130, [3-(8-amino-1,7-naphthyridin-3-yl)-4-methoxyphenyl]boronic Acid Formic Acid Salt], the IC50 was 67.6 nM.
Next, `Cc1nnc(N)c2ccc(-c3cc(B(O)O)ccc3OC(F)F)cc12` [Example 131, [3-(1-amino-4-methylphthalazin-6-yl)-4-(difluoromethoxy)phenyl]boronic Acid Formic Acid Salt]: 0.617 nM.
Turning to `COc1cc(C)c(B(O)O)cc1-c1ccc2c(N)cnnc2c1` [Example 134, [5-(4-aminocinnolin-7-yl)-4-methoxy-2-methylphenyl]boronic Acid Formic Acid Salt], the IC50 was 2.09 nM.
With `COCc1cc(OC)c(-c2ccc3c(N)cnnc3c2)cc1B(O)O` [Example 137, [5-(4-aminocinnolin-7-yl)-4-methoxy-2-(methoxymethyl)phenyl]boronic Acid Formic Acid Salt], the IC50 was 2.82 nM.
Consider `Nc1cnnc2cc(-c3cc(B(O)O)cc4c3OCC4)ccc12` [Example 138, [7-(4-aminocinnolin-7-yl)-2,3-dihydro-1-benzofuran-5-yl]boronic Acid Formic Acid Salt], for which the IC50 is 1.62 nM.
For `COc1ccc(B(O)O)cc1-c1cnc2cnccc2c1` [Example 139, [4-methoxy-3-(1,7-naphthyridin-3-yl)phenyl]boronic Acid] the value was more than 25100 nM; for `Nc1cnnc2cc(-c3cc(B(O)O)ccc3OC3CC(F)(F)C3)ccc12` [Example 142, [3-(4-aminocinnolin-7-yl)-4-(3,3-difluorocyclobutoxy)phenyl]boronic Acid Formic Acid Salt], 1.17 nM; for `Nc1cnnc2cc(-c3cc(B(O)O)ccc3N3CCOCC3)ccc12` [Example 143, [3-(4-aminocinnolin-7-yl)-4-(morpholin-4-yl)phenyl]boronic Acid Formic Acid Salt], 57.5 nM.
For `COc1ccc(B(O)O)cc1-c1cnc2c(N)cnnc2c1` [Example 144, (3-{4-aminopyrido[3,2-C]pyridazin-7-yl}-4-methoxyphenyl)boronic Acid] the value was 66.1 nM.
Next, `Nc1cnnc2cc(-c3cc(B(O)O)cc4c3OCCC4)ccc12` [Example 145, [8-(4-aminocinnolin-7-yl)-3,4-dihydro-2H-chromen-6-yl]boronic Acid Formic Acid Salt]: 3.09 nM; `Cn1nc(C2CC2)c2c(B(O)O)cc(-c3ccc4c(N)cnnc4c3)cc21` [Example 146, [6-(4-aminocinnolin-7-yl)-3-cyclopropyl-1-methyl-1H-indazol-4-yl]boronic Acid]: 5.25 nM.
For the compound `Nc1cnnc2cc(-c3cc(B(O)O)c4occc4c3)ccc12` [Example 149, [5-(4-aminocinnolin-7-yl)-1-benzofuran-7-yl]boronic Acid Formic Acid Salt], the IC50 was 0.603 nM.
Next, `Nc1cnnc2cc(-c3cc(B(O)O)ccc3N3CCCC3)ccc12` [Example 150, [3-(4-aminocinnolin-7-yl)-4-(pyrrolidin-1-yl)phenyl]boronic Acid Formic Acid Salt]: 50.1 nM.
Next, `Nc1cnnc2cc(-c3ccc4c(c3)B(O)ON=C4)ccc12` [Example 156, 7-(4-aminocinnolin-7-yl)-1H-2,3,1-benzoxazonin-1-ol Formic Acid Salt]: 55 nM.
Next, `COc1ccc(B(O)O)cc1-c1ccc2c(O)cnnc2c1` [Example 158, [3-(4-hydroxycinnolin-7-yl)-4-methoxyphenyl]boronic Acid]: more than 25100 nM; `O=CO.[2H]C([2H])([2H])Oc1ccc(B(O)O)cc1-c1ccc2c(N)cnnc2c1` [Example 159, [3-(4-aminocinnolin-7-yl)-4-(^2H3)methoxyphenyl]boronic Acid Formic Acid Salt]: 1.26 nM; `COc1ccc(B(O)O)cc1-c1ccc2c(O)nncc2c1` [Example 160, [3-(1-hydroxyphthalazin-6-yl)-4-methoxyphenyl]boronic Acid]: more than 25100 nM.
Turning to `COc1ccc(B(O)O)cc1-c1ccc2ccncc2c1` [Example 161, [3-(isoquinolin-7-yl)-4-methoxyphenyl]boronic Acid], the IC50 is more than 25100 nM.
Regarding `COc1ccc(B(O)O)cc1-c1cc(OC)c2ccnnc2c1` [Example 162, [4-methoxy-3-(5-methoxycinnoline-7-yl)phenyl]boronic Acid], the IC50 was more than 25100 nM.
With `CC(F)(F)Oc1ccc(B(O)O)cc1-c1ccc2c(N)cnnc2c1` [Example 163, [3-(4-aminocinnolin-7-yl)-4-(1,1-difluoroethoxy)phenyl]boronic Acid Formic Acid Salt], the IC50 was 1.05 nM.
Next, `CS(=O)(=O)c1ccc(B(O)O)cc1-c1ccc2c(N)cnnc2c1` [Example 164, [3-(4-aminocinnolin-7-yl)-4-methylsulfonylphenyl]boronic acid formic acid salt]: 12.6 nM; `Nc1cnnc2cc(-c3cc(B(O)O)ccc3N3CCNS3(=O)=O)ccc12` [Example 165, [3-(4-aminocinnolin-7-yl)-4-(1,1-dioxo-1,2,5-thiadiazolidin-2-yl)phenyl]boronic Acid]: 7.41 nM; `Nc1cnnc2cc(-c3cc(B(O)O)ccc3Oc3ccc(F)cc3)ccc12` [Example 167, [3-(4-aminocinnolin-7-yl)-4-(4-fluorophenoxy)phenyl]boronic Acid Formic Acid Salt]: 1.66 nM.
For `Nc1cnnc2cc(-c3cc(B(O)O)ccc3Oc3cncs3)ccc12` [Example 168, [3-(4-aminocinnolin-7-yl)-4-(1,3-thiazol-5-yloxy)phenyl]boronic Acid Formic Acid Salt] the value was 1.32 nM; for `Nc1cnnc2cc(-c3cc(B(O)O)ccc3Oc3nccs3)ccc12` [Example 169, [3-(4-aminocinnolin-7-yl)-4-(1,3-thiazol-2-yloxy)phenyl]boronic Acid Formic Acid Salt], 1.45 nM.
For `CC1(C)Cc2cc(B(O)O)cc(-c3ccc4c(N)cnnc4c3)c2O1` [Example 170, [7-(4-aminocinnolin-7-yl)-2,2-dimethyl-2,3-dihydro-1-benzofuran-5-yl]boronic Acid Formic Acid Salt], the IC50 was 1.07 nM.
For `Cc1ncc(Oc2ccc(B(O)O)cc2-c2ccc3c(N)cnnc3c2)s1` [Example 171, [3-(4-aminocinnolin-7-yl)-4-(2-methylthiazol-5-yl)oxy-phenyl]Boronic Acid Formic Acid Salt] the value was 1.29 nM.
